Data set [1] addresses T1, Xanthine dehydrogenase (Rhodobacter capsulatus, UniProt O54050).
T1 sequence (O54050 whole entry): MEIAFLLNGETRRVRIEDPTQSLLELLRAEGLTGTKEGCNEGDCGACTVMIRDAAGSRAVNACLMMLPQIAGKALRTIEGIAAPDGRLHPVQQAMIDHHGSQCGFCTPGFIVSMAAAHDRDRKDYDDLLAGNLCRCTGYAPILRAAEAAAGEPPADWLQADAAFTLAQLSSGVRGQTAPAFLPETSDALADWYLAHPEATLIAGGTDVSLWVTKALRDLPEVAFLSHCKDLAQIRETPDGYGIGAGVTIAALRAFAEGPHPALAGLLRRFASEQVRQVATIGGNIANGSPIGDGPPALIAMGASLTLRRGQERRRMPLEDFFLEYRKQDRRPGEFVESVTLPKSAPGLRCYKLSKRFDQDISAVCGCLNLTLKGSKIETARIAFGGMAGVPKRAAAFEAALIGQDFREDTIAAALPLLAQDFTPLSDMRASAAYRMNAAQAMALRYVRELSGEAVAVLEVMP
Nature of the data set: Inhibition of Rhodobacter capsulatus xanthine dehydrogenase.

The target in data set [2] is Xanthine dehydrogenase/oxidase (Bos taurus, UniProt P80457). Kind of data set: Inhibition of bovine milk xanthine oxidoreductase by spectrophotometry.
Xanthine dehydrogenase/oxidase (Bos taurus, UniProt P80457), sequence (P80457 whole entry): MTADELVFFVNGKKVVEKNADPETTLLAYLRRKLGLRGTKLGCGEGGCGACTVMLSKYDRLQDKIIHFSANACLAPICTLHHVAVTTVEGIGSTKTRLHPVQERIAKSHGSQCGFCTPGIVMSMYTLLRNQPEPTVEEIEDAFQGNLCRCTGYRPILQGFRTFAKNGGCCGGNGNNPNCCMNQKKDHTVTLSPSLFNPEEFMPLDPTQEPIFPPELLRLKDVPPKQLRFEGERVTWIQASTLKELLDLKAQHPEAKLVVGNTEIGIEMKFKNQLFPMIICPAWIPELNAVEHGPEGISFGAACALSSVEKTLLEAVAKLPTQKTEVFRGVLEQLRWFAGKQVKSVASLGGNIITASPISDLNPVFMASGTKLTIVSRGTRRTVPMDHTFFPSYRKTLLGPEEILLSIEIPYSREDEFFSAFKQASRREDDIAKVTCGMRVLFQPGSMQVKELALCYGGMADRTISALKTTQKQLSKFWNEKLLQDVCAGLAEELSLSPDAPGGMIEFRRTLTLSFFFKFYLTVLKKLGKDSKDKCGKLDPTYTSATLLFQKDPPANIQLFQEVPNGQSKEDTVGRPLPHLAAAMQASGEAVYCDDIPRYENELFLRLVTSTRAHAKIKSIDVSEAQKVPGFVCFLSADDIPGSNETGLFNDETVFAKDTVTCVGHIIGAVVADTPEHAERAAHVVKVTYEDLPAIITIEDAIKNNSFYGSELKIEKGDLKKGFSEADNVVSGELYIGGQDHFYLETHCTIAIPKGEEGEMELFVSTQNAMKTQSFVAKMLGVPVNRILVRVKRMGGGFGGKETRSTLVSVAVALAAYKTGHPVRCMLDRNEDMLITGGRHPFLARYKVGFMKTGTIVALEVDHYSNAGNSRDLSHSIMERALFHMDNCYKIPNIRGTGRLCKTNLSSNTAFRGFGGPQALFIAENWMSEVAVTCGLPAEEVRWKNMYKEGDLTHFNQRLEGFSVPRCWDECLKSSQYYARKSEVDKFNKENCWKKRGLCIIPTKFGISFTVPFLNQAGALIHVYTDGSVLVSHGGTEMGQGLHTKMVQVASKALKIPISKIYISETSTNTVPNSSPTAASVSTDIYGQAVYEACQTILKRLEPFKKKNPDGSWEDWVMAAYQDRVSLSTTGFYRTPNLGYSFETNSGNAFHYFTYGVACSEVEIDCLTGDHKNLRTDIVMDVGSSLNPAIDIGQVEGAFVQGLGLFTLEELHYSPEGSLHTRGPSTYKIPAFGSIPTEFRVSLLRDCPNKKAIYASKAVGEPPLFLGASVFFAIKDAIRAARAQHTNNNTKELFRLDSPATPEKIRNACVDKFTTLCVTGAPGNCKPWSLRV
In data set [3] the target is T2, Xanthine dehydrogenase/oxidase (Homo sapiens, UniProt P47989). Nature of the data set: Inhibition of human xanthine oxidase.
T2 sequence (P47989 whole entry): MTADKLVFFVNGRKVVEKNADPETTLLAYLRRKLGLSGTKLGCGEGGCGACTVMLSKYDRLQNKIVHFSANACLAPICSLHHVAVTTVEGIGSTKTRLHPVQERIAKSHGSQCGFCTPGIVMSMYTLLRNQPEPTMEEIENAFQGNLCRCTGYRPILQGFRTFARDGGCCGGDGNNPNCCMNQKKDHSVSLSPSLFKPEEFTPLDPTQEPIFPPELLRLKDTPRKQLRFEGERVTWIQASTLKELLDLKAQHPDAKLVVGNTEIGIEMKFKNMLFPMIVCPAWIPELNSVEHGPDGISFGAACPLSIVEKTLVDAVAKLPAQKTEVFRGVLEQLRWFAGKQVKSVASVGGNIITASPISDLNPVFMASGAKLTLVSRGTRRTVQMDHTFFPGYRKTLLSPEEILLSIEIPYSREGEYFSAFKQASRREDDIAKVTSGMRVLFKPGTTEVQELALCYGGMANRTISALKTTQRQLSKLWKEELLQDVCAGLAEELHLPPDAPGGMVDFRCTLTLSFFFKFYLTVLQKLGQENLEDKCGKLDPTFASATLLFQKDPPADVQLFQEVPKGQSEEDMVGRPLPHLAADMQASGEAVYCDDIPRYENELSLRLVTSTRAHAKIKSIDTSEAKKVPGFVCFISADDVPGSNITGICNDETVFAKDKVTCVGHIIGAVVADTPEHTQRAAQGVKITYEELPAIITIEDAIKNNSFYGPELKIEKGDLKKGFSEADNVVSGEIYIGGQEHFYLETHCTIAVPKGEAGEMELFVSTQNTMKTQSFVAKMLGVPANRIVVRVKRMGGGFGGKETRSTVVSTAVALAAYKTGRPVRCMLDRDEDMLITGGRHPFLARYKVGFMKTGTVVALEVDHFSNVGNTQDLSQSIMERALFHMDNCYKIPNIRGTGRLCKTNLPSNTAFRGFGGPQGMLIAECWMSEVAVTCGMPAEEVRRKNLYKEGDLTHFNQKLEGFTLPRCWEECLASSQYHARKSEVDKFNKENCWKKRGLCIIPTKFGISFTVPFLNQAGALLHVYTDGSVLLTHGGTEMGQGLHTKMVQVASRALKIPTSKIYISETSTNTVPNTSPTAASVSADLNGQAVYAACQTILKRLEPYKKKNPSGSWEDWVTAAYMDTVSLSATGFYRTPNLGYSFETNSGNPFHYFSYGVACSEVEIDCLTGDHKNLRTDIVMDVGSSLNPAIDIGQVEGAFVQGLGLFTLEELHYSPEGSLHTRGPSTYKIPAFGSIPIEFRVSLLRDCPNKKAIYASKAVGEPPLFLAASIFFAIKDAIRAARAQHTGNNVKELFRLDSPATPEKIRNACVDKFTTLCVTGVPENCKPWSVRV
In data set [4] the target is T2, Xanthine dehydrogenase/oxidase. Nature of the data set: Inhibition of oxidized form of human xanthine oxidase.

Take `Nc1nc2ncc(C=O)nc2c(=O)[nH]1`: the Ki in data set [1] turned out to be 104 nM; in data set [2], 1.78 nM.

For `O=c1[nH]c(=O)c2c[nH]nc2[nH]1` [OXYPURINOL], the Ki stood at 35 nM in data set [3] and 1000 nM in data set [4].

With `O=c1c(O)c(-c2ccc(O)c(O)c2)oc2cc(O)cc(O)c12` [QUERCETIN], the “inhibition (INH)” value in data set [2] (cattle) was “Active”.

(Values after ChEMBL document CHEMBL3352774 (J Nat Prod, 2014).)
